Data taken from ChEMBL document CHEMBL3774309, “SAR Exploration Guided by LE and Fsp(3): Discovery of a Selective and Orally Efficacious RORγ Inhibitor” (ACS Med Chem Lett, 2016).
pEC50, pIC50: −log10 of the molar value. One block for each molecule: values may come before it.

What was measured:
[1] = molecular target: T1, Nuclear receptor ROR-gamma (Mus musculus, UniProt P51450); assay: Inhibition of mouse RORgamma ligand binding domain (Isoleucine 251 to Lysine 516) expressed in CHOK1 cells incubated for 2 days by Gal4 luciferase reporter gene assay; type: cell-based, CHO-K1
T1 sequence (P51450 whole entry): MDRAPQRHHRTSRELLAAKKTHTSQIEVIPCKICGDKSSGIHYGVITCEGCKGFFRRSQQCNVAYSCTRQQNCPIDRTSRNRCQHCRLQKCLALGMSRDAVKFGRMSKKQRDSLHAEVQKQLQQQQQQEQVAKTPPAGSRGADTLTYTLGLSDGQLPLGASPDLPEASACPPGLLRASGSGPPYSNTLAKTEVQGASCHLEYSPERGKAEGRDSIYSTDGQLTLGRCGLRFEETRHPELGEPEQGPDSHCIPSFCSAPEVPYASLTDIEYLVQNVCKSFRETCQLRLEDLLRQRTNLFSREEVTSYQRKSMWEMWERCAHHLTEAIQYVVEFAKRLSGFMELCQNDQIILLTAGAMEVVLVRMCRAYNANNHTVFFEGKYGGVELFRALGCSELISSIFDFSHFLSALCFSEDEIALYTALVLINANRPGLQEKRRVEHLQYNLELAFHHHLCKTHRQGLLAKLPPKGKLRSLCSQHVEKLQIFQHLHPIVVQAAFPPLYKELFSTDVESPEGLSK

[2] = molecular target: T2, Nuclear receptor ROR-gamma (Homo sapiens, UniProt P51449)
T2 sequence (P51449 whole entry): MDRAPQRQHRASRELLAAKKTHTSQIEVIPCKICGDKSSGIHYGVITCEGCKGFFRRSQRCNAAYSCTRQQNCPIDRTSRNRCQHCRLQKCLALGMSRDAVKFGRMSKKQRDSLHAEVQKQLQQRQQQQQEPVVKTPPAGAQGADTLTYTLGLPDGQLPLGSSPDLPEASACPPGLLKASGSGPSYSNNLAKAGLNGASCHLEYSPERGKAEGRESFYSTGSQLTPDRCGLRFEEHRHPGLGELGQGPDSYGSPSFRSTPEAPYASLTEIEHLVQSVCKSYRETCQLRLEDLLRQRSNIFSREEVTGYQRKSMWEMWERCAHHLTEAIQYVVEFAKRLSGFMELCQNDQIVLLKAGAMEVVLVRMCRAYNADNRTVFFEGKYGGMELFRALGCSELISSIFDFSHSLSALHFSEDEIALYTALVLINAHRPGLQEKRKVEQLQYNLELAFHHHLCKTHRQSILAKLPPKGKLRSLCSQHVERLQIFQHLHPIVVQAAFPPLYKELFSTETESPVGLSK
Description: Inhibition of human RORgamma ligand binding domain (Serine 253 to Lysine 518 residues) expressed in CHOK1 cells incubated for 2 days by Gal4 luciferase reporter gene assay

[3] = Metabolic stability in liver S9 fraction (unknown origin) assessed as parent compound remaining incubated for 10 mins; type: ADME, subcellular; settings: human, read-out: Stability
[4] = Metabolic stability in liver S9 fraction (unknown origin) assessed as parent compound remaining incubated for 60 mins; type: ADME, subcellular; settings: human, read-out: Stability
Cytochrome P450 3A4 [5] = molecular target: T3, Cytochrome P450 3A4 (Homo sapiens, UniProt P08684); assay: Inhibition of CYP3A4 in human liver microsomes using midazolam as substrate preincubated with substrate for 5 mins followed by NADPH addition measured after 20 mins by HPLC analysis; type: ADME
Cytochrome P450 2C9 = Cytochrome P450 2C9 (Homo sapiens, UniProt P11712); assay: Inhibition of CYP2C9 in human liver microsomes using diclofenac as substrate preincubated with substrate for 5 mins followed by NADPH addition measured after 20 mins by HPLC analysis; type: ADME
Cytochrome P450 2D6 = Cytochrome P450 2D6 (Homo sapiens, UniProt P10635); assay: Inhibition of CYP2D6 in human liver microsomes using bufuralol as substrate preincubated with substrate for 5 mins followed by NADPH addition measured after 20 mins by HPLC analysis; type: ADME
Cytochrome P450 1A2 = Cytochrome P450 1A2 (Homo sapiens, UniProt P05177); assay: Inhibition of CYP1A2 in human liver microsomes using ethoxyresorufin as substrate preincubated with substrate for 5 mins followed by NADPH addition measured after 20 mins by HPLC analysis; type: ADME
Cytochrome P450 2A6 = Cytochrome P450 2A6 (Homo sapiens, UniProt P11509); assay: Inhibition of CYP2A6 in human liver microsomes using coumarin as substrate preincubated with substrate for 5 mins followed by NADPH addition measured after 20 mins by HPLC analysis; type: ADME
Cytochrome P450 2C19 = Cytochrome P450 2C19 (Homo sapiens, UniProt P33261); assay: Inhibition of CYP2C19 in human liver microsomes using S-mephenytoin as substrate preincubated with substrate for 5 mins followed by NADPH addition measured after 20 mins by HPLC analysis; type: ADME
[6] = molecular target: Nuclear receptor ROR-alpha (Homo sapiens, UniProt P35398); assay: Inhibition of human RORalpha
Steroidogenic factor 1 = Steroidogenic factor 1 (Homo sapiens, UniProt Q13285); assay: Inhibition of human SF-1 receptor
[7] = molecular target: Nuclear receptor ROR-beta (Homo sapiens, UniProt Q92753); assay: Inhibition of human RORbeta
Glucocorticoid receptor = Glucocorticoid receptor (Mus musculus, UniProt P06537); assay: Inhibition of mouse GR
[8] = molecular target: Retinoic acid receptor RXR-alpha (Homo sapiens, UniProt P19793); assay: Inhibition of human RXRalpha
Vitamin D3 receptor = Vitamin D3 receptor (Homo sapiens, UniProt P11473); assay: Inhibition of human VDR
Bile acid receptor = Bile acid receptor (Homo sapiens, UniProt Q96RI1); assay: Inhibition of human FXR
[9] = molecular target: Oxysterols receptor LXR-alpha (Mus musculus, UniProt Q9Z0Y9); assay: Inhibition of mouse LXRalpha
[10] = molecular target: Peroxisome proliferator-activated receptor alpha (Homo sapiens, UniProt Q07869); assay: Inhibition of human PPARalpha
[11] = molecular target: Peroxisome proliferator-activated receptor gamma (Homo sapiens, UniProt P37231); assay: Inhibition of human PPARgamma
[12] = molecular target: Peroxisome proliferator-activated receptor delta (Homo sapiens, UniProt Q03181); assay: Inhibition of human PPARdelta
Progesterone receptor = Progesterone receptor (Homo sapiens, UniProt P06401); assay: Inhibition of human PR
[13] = molecular target: Retinoic acid receptor alpha (Homo sapiens, UniProt P10276); assay: Inhibition of human RARalpha
[14] = molecular target: Retinoic acid receptor beta (Homo sapiens, UniProt P10826); assay: Inhibition of human RARbeta
Mus musculus = assay: Inhibition of MOG/PTX/CD3 antibody-induced IL-17 production in po dosed C57BL/6 mouse plasma adminstered 3 to 8 hrs before CD3 antibody injection by ELISA; type: functional, organism-based
[15] = molecular target: T2, Nuclear receptor ROR-gamma; assay: Inhibition of human GST-tagged RORgamma ligand binding domain (253 to 518 residues) expressed in sf9 cells using biotin-EEPSLLKKLLLAPA by FRET assay
[16] = Metabolic stability in human liver microsomes assessed as parent compound remaining incubated for 10 mins; type: ADME; settings: read-out: Stability
Cytochrome P450 3A4 [17] = molecular target: T3, Cytochrome P450 3A4; assay: Inhibition of human CYP3A4

T3 sequence (P08684 whole entry): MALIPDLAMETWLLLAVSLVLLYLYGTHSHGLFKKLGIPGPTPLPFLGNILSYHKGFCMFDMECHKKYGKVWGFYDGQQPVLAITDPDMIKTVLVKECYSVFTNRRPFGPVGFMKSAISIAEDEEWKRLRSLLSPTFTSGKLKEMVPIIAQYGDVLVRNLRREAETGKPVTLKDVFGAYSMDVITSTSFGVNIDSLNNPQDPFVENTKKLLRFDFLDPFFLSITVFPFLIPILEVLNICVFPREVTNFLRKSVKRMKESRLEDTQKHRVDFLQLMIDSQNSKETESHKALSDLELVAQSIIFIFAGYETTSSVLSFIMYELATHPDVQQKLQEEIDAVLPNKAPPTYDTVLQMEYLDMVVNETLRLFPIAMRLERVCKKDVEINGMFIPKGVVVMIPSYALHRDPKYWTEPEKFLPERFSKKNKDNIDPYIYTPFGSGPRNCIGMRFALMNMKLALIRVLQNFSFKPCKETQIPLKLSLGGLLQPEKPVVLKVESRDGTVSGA
Peroxisome proliferator-activated receptor delta, sequence (Q03181 whole entry): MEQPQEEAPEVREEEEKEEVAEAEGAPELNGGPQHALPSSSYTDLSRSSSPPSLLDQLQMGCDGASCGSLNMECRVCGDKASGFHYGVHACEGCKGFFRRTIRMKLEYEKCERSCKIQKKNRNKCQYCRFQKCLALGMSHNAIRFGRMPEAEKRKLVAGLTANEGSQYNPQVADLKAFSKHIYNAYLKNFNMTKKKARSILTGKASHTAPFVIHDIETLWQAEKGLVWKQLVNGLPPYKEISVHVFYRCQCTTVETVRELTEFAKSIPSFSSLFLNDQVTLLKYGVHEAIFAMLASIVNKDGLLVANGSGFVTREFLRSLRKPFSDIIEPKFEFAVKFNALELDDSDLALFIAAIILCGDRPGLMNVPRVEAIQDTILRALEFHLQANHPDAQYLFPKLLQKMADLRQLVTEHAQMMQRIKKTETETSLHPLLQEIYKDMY
Nuclear receptor ROR-beta, sequence (Q92753 whole entry): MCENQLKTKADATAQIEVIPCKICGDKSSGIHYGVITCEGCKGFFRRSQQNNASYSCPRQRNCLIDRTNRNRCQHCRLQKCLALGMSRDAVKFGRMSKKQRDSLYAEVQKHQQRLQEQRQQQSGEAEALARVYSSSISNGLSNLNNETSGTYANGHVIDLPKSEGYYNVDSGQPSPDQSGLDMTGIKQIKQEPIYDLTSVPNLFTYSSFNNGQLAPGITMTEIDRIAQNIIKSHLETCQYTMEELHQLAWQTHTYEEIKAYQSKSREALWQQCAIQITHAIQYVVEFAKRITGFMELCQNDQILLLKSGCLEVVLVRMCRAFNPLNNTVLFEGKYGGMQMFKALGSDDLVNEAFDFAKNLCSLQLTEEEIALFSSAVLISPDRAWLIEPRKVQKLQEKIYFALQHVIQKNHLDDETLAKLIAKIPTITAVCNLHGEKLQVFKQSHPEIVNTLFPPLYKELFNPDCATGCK
Cytochrome P450 2A6, sequence (P11509 whole entry): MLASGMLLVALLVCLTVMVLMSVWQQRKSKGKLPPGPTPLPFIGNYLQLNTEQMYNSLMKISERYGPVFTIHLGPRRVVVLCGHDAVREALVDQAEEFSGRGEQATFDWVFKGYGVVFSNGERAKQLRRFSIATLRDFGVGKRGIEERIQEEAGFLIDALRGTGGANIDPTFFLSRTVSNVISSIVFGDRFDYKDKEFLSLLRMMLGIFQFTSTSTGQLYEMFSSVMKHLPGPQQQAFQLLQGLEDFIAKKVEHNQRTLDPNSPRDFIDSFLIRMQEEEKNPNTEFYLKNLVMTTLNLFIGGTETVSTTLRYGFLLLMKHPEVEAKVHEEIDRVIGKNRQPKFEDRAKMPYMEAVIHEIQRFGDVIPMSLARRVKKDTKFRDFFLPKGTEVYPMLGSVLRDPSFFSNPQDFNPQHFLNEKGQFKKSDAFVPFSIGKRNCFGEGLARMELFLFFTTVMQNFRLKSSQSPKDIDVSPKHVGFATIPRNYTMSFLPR
Bile acid receptor, sequence (Q96RI1 whole entry): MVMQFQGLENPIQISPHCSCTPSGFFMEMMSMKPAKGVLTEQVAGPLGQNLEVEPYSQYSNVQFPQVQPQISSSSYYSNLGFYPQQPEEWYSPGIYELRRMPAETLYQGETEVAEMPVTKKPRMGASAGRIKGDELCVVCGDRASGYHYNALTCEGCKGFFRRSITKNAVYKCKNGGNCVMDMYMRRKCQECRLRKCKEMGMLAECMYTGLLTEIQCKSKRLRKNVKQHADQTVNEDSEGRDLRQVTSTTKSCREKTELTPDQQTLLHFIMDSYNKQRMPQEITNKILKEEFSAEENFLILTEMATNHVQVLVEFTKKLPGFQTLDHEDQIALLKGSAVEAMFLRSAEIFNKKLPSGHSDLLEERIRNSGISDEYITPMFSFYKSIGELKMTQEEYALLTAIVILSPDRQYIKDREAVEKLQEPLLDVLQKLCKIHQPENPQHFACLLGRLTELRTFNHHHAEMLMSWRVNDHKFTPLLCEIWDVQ
Retinoic acid receptor beta, sequence (P10826 whole entry): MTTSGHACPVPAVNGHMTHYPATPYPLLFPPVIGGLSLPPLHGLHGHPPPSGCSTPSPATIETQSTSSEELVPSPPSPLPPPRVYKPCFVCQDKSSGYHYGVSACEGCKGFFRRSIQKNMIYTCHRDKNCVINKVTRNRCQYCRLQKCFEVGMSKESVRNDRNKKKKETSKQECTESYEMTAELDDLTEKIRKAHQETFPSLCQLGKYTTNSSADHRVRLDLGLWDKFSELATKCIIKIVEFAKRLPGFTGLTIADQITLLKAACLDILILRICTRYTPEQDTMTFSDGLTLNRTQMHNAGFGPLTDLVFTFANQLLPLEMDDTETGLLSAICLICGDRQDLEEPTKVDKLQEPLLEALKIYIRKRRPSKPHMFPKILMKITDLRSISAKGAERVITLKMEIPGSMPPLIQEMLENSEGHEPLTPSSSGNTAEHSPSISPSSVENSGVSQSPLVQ
Progesterone receptor, sequence (P06401 whole entry): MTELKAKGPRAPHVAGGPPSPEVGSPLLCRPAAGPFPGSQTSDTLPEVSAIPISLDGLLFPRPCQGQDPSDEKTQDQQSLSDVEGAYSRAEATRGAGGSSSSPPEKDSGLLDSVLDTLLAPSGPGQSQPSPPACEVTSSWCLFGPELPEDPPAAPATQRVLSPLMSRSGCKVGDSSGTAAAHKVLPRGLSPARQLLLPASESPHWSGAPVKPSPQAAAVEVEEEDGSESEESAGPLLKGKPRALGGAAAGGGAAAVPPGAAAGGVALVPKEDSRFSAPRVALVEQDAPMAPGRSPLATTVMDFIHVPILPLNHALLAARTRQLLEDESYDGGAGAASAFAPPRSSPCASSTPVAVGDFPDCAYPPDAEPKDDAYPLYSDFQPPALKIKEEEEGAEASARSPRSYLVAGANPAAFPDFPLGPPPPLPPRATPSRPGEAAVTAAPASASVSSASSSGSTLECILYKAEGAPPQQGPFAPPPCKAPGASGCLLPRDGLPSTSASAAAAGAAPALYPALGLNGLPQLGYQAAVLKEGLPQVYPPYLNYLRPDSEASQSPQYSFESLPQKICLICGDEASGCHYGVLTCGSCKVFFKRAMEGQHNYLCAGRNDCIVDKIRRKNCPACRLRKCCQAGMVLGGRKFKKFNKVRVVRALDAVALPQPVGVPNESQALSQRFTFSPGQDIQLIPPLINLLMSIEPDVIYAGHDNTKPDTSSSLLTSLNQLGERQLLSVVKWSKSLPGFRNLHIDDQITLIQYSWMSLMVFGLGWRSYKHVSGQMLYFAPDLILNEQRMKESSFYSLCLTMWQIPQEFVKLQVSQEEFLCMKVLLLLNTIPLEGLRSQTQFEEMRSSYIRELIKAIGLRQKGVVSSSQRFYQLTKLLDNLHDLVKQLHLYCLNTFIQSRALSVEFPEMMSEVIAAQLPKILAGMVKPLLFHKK
Peroxisome proliferator-activated receptor alpha, sequence (Q07869 whole entry): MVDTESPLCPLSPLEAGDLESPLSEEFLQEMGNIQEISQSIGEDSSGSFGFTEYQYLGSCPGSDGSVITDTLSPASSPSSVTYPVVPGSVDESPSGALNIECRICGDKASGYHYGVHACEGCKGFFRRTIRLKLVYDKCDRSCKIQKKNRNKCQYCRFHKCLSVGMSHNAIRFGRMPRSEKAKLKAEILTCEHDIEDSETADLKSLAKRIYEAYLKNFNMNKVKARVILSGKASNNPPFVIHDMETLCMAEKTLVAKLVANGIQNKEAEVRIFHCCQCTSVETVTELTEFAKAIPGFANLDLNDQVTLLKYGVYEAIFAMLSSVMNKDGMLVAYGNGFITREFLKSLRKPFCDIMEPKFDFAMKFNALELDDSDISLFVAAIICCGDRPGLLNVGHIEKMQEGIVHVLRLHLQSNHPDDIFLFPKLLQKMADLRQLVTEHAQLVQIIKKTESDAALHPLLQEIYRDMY
Cytochrome P450 2C19, sequence (P33261 whole entry): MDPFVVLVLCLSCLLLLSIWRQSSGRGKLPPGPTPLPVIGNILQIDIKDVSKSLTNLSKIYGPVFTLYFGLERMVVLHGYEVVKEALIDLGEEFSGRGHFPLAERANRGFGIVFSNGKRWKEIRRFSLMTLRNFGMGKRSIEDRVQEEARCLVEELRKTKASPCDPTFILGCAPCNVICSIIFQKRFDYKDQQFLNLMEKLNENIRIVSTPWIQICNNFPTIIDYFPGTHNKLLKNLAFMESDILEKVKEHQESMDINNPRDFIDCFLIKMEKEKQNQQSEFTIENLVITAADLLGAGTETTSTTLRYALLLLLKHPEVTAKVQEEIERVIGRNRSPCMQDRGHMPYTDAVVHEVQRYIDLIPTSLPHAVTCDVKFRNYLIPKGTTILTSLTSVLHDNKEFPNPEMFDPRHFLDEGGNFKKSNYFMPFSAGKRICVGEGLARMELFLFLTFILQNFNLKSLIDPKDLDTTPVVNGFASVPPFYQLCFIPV

pEC50 [1]: 6.20
pEC50 [2]: 5.60
SMILES: CCn1c(CCC(=O)Nc2cccc3ccccc23)nnc1CCc1ccccc1

pEC50 [1]: 6.35
remaining at 10 min [3]: 55%
remaining at 1 h [4]: 23%
pEC50 [2]: 6.01
SMILES: Cc1ccc(NC(=O)CCc2nnc(CCC3CCCCC3)n2C2CC2)c(C)c1

pEC50 [1]: 7.42
remaining at 10 min [3]: 87%
remaining at 1 h [4]: 76%
pIC50 (Cytochrome P450 3A4 [5]): 5.52
pEC50 [2]: 7.01
SMILES: Cc1ccc(NC(=O)[C@H]2C[C@@H](O)C[C@@H]2c2nnc([C@H]3C[C@@H](CC(C)C)C3)n2C2CC2)c(C)c1

pEC50 [1]: 5.35
pEC50 [2]: < 4.70
SMILES: CCn1c(CCC(=O)Nc2cccc3ccccc23)nnc1C1CCCCC1

pEC50 [1]: < 4.70
pEC50 [2]: < 4.70
SMILES: CCn1c(C(O)CC(=O)Nc2cccc3ccccc23)nnc1C1Cc2ccccc2C1 (racemic)

pEC50 [1]: 5.89
remaining at 10 min [3]: 71%
remaining at 1 h [4]: 51%
pEC50 [2]: 5.55
SMILES: Cc1ccc(NC(=O)CCc2nnc(CCCC(C)(C)C)n2C2CC2)c(C)c1

remaining at 10 min [3]: 86%
remaining at 1 h [4]: 61%
pIC50 (Cytochrome P450 3A4 [5]): < 4.30
inhibition (INH) (Cytochrome P450 3A4 [5]; human, microsomes, 20 min, TDE = time-dependent effect): tde
pIC50 (Cytochrome P450 2C9): < 4.30
pIC50 (Cytochrome P450 2D6): < 4.30
pIC50 (Cytochrome P450 1A2): < 4.30
pIC50 (Cytochrome P450 2A6): < 4.30
pIC50 (Cytochrome P450 2C19): < 4.30
pEC50 [6]: < 4.70
pEC50 (Steroidogenic factor 1): < 4.70
pEC50 [7]: < 4.70
pEC50 (Glucocorticoid receptor): < 4.70
pEC50 [8]: < 4.70
pEC50 (Vitamin D3 receptor): < 4.70
pEC50 (Bile acid receptor): < 4.70
pEC50 [9]: < 4.70
pEC50 [10]: < 4.70
pEC50 [11]: < 4.70
pEC50 [12]: < 4.70
pEC50 (Progesterone receptor): < 4.70
pEC50 [13]: < 4.70
pEC50 [14]: < 4.70
SMILES: CC(=O)N1C[C@H](C(=O)Nc2ccc(C)cc2C)[C@@H](c2nnc([C@H]3C[C@@H](CC(C)C)C3)n2C2CC2)C1
inhibition (Mus musculus): Dose-dependent effect

pEC50 [1]: 6.54
remaining at 10 min [3]: 53%
remaining at 1 h [4]: 21%
pEC50 [2]: 6.64
SMILES: Cc1ccc(NC(=O)[C@H]2CN(C)CC[C@@H]2c2nnc([C@H]3C[C@@H](CC(C)C)C3)n2C2CC2)c(C)c1 (racemic)

pEC50 [1]: 5.51
pEC50 [2]: 5.54
SMILES: CCn1c(CCC(=O)Nc2cc(C)cc(C)c2)nnc1CCC1CCCCC1

pEC50 [1]: 6.19
pEC50 [2]: 6.02
SMILES: CCn1c(CCC(=O)Nc2cccc(Cl)c2C)nnc1CCC1CCCCC1

pEC50 [1]: 6.40
pEC50 [2]: 6.00
SMILES: CCn1c(CCC(=O)Nc2cccc3ccccc23)nnc1C1Cc2ccccc2C1

pEC50 [1]: 6.30
remaining at 10 min [3]: 75%
remaining at 1 h [4]: 59%
pEC50 [2]: 6.04
SMILES: Cc1ccc(NC(=O)CCc2nnc(CCC3CCCCC3)n2C2CC2(F)F)c(C)c1 (stereo not given)

pEC50 [1]: 7.46
remaining at 10 min [3]: 70%
remaining at 1 h [4]: 39%
pIC50 (Cytochrome P450 3A4 [5]): 5.30
pEC50 [2]: 6.85
SMILES: Cc1ccc(NC(=O)CCc2nnc([C@H]3C[C@@H](CC(C)C)C3)n2C2CC2)c(C)c1

pEC50 [1]: 5.59
pEC50 [2]: 4.85
SMILES: CCn1c(CCC(=O)Nc2cccc3ccccc23)nnc1CC1CCCCC1

pEC50 [1]: 7.27
remaining at 10 min [3]: 83%
remaining at 1 h [4]: 31%
pEC50 [2]: 6.35
SMILES: Cc1ccc(NC(=O)CCc2nnc(-c3cc(CC(C)C)on3)n2C2CC2)c(C)c1

pEC50 [1]: 5.96
pEC50 [2]: 5.77
SMILES: CCn1c(C(C)CC(=O)Nc2cccc3ccccc23)nnc1C1Cc2ccccc2C1 (racemic)

pEC50 [1]: < 4.70
pEC50 [2]: < 4.70
SMILES: CCn1c(OCC(=O)Nc2cccc3ccccc23)nnc1C1Cc2ccccc2C1

pEC50 [1]: 7.28
remaining at 10 min [3]: 68%
remaining at 1 h [4]: 31%
pEC50 [2]: 6.40
SMILES: Cc1ccc(NC(=O)CCc2nnc([C@H]3C[C@H](CC(C)C)C3)n2C2CC2)c(C)c1

pEC50 [1]: 5.85
remaining at 10 min [3]: 63%
remaining at 1 h [4]: 27%
pEC50 [2]: 5.41
SMILES: CCC(C)CCc1nnc(CCC(=O)Nc2ccc(C)cc2C)n1C1CC1 (racemic)

pEC50 [1]: 6.17
pEC50 [2]: 5.89
SMILES: CCn1c(CC(C)C(=O)Nc2cccc3ccccc23)nnc1C1Cc2ccccc2C1 (racemic)

pEC50 [1]: 5.74
remaining at 10 min [3]: 49%
remaining at 1 h [4]: 27%
pEC50 [2]: 5.02
SMILES: Cc1ccc(NC(=O)CCc2nnc(CCC3CCCCC3)n2C2CCC2)c(C)c1

pEC50 [1]: 6.52
pEC50 [2]: 6.09
SMILES: CCn1c(CCC(=O)Nc2cccc3ccccc23)nnc1CCC1CCCCC1

pEC50 [1]: 6.21
remaining at 10 min [3]: 67%
remaining at 1 h [4]: 27%
pEC50 [2]: 5.77
SMILES: Cc1ccc(NC(=O)CCc2nnc(CCCC(C)C)n2C2CC2)c(C)c1

pEC50 [1]: 6.08
pEC50 [2]: 5.17
SMILES: CCn1c(CCC(=O)Nc2cccc3ccccc23)nnc1CCC(C)(C)C

pEC50 [1]: 5.85
pEC50 [2]: 4.89
SMILES: CCn1c(CCC(=O)Nc2cccc3ccccc23)nnc1CCC(C)C

pEC50 [1]: 6.92
remaining at 10 min [3]: 84%
remaining at 1 h [4]: 55%
pEC50 [2]: 5.74
SMILES: Cc1ccc(NC(=O)CCc2nnc(-c3ccc(CC(C)C)cc3)n2C2CC2)c(C)c1

pEC50 [1]: 6.15
pEC50 [15]: 6.07
remaining at 10 min [16]: 18%
pIC50 (Cytochrome P450 3A4 [17]): 5.40
pEC50 [2]: 5.77
SMILES: CCn1c(SCC(=O)Nc2cccc3ccccc23)nnc1C1Cc2ccccc2C1

pEC50 [1]: 6.22
remaining at 10 min [3]: 36%
remaining at 1 h [4]: 0%
remaining at 10 min [16]: 36%
pEC50 [2]: 6.05
SMILES: CCn1c(CCC(=O)Nc2ccc(C)cc2C)nnc1CCC1CCCCC1
